# Measurements: PubChem BioAssay (NCI)
#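 A five-concentration, 48-hour dose response in 96-well plates underlies each endpoint, interpolated linearly between surrounding concentrations. Here, GI50 denotes the concentration required for 50% inhibition of growth. Definition used: TGI = concentration required for complete inhibition of growth.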
# Assays:
# Assay in all cases: NCI tumour cell line growth inhibition, 48 h
# SNB-75 CNS = test system: SNB-75 CNS
# HOP-62 NSCLC = test system: HOP-62 NSCLC
# DU-145 prostate = test system: DU-145 prostate
# NCI-H23 lung = test system: NCI-H23 lung
# A498 renal = test system: A498 renal
# SK-OV-3 ovarian = test system: SK-OV-3 ovarian
# SN12C renal = test system: SN12C renal
# LOX IMVI melanoma = test system: LOX IMVI melanoma
# RXF 393 renal = test system: RXF 393 renal
# MOLT-4 leukemia = test system: MOLT-4 leukemia
# TK-10 renal = test system: TK-10 renal
# SF-539 CNS = test system: SF-539 CNS
# RPMI-8226 leukemia = test system: RPMI-8226 leukemia
# SF-295 CNS = test system: SF-295 CNS
# NCI/ADR-RES ovarian = test system: NCI/ADR-RES ovarian
# SK-MEL-28 melanoma = test system: SK-MEL-28 melanoma
# U251 CNS = test system: U251 CNS
# UACC-257 melanoma = test system: UACC-257 melanoma
# SW-620 colon = test system: SW-620 colon
# OVCAR-4 ovarian = test system: OVCAR-4 ovarian
# UO-31 renal = test system: UO-31 renal
# HCC-2998 colon = test system: HCC-2998 colon
# SNB-19 CNS = test system: SNB-19 CNS
# OVCAR-8 ovarian = test system: OVCAR-8 ovarian
# BT-549 breast = test system: BT-549 breast
# K-562 leukemia = test system: K-562 leukemia
# COLO 205 colon = test system: COLO 205 colon
# PC-3 prostate = test system: PC-3 prostate
# MDA-MB-435 = test system: MDA-MB-435
# SF-268 CNS = test system: SF-268 CNS
# OVCAR-3 ovarian = test system: OVCAR-3 ovarian
# HOP-92 NSCLC = test system: HOP-92 NSCLC
# UACC-62 melanoma = test system: UACC-62 melanoma
# HCT-15 colon = test system: HCT-15 colon
# HT29 colon = test system: HT29 colon
# HS 578T breast = test system: HS 578T breast
# A549 NSCLC = test system: A549 NSCLC
# CCRF-CEM leukemia = test system: CCRF-CEM leukemia
# CAKI-1 renal = test system: CAKI-1 renal
# OVCAR-5 ovarian = test system: OVCAR-5 ovarian
# SK-MEL-5 melanoma = test system: SK-MEL-5 melanoma
# HL-60(TB) leukemia = test system: HL-60(TB) leukemia
# T-47D breast = test system: T-47D breast
# IGROV1 ovarian = test system: IGROV1 ovarian
# MDA-MB-231 breast = test system: MDA-MB-231 breast
# NCI-H460 lung = test system: NCI-H460 lung
# SK-MEL-2 melanoma = test system: SK-MEL-2 melanoma
# ACHN renal = test system: ACHN renal
# KM12 colon = test system: KM12 colon
# HCT-116 colon = test system: HCT-116 colon
# M14 melanoma = test system: M14 melanoma
# NCI-H522 lung = test system: NCI-H522 lung
# 786-0 renal = test system: 786-0 renal
# MALME-3M melanoma = test system: MALME-3M melanoma
# NCI-H226 lung = test system: NCI-H226 lung
# EKVX NSCLC = test system: EKVX NSCLC
smiles,measurement,setting,value
O=C(C(Br)C(Br)c1ccccc1)C(Br)C(Br)c1ccccc1 (configuration not stated),GI50,SNB-75 CNS,1.77 µM
same,TGI,SNB-75 CNS,6.14 µM
same,GI50,HOP-62 NSCLC,3.08 µM
same,TGI,HOP-62 NSCLC,8.89 µM
same,GI50,DU-145 prostate,1.46 µM
same,TGI,DU-145 prostate,2.91 µM
same,GI50,NCI-H23 lung,2.02 µM
same,TGI,NCI-H23 lung,4.83 µM
same,GI50,A498 renal,1.72 µM
same,TGI,A498 renal,4.12 µM
same,GI50,SK-OV-3 ovarian,4.67 µM
same,TGI,SK-OV-3 ovarian,19.3 µM
same,GI50,SN12C renal,1.78 µM
same,TGI,SN12C renal,3.83 µM
same,GI50,LOX IMVI melanoma,0.633 µM
same,TGI,LOX IMVI melanoma,1.88 µM
same,GI50,RXF 393 renal,0.527 µM
same,TGI,RXF 393 renal,1.77 µM
same,GI50,MOLT-4 leukemia,0.348 µM
same,TGI,MOLT-4 leukemia,1.41 µM
same,GI50,TK-10 renal,0.311 µM
same,TGI,TK-10 renal,1.44 µM
same,GI50,SF-539 CNS,1.66 µM
same,TGI,SF-539 CNS,3.19 µM
same,GI50,RPMI-8226 leukemia,0.325 µM
same,TGI,RPMI-8226 leukemia,1.33 µM
same,GI50,SF-295 CNS,4.6 µM
same,TGI,SF-295 CNS,13.6 µM
same,GI50,NCI/ADR-RES ovarian,2.95 µM
same,TGI,NCI/ADR-RES ovarian,13.3 µM
same,GI50,SK-MEL-28 melanoma,1.62 µM
same,TGI,SK-MEL-28 melanoma,3.36 µM
same,GI50,U251 CNS,1.89 µM
same,TGI,U251 CNS,4.53 µM
same,GI50,UACC-257 melanoma,1.37 µM
same,TGI,UACC-257 melanoma,2.92 µM
same,GI50,SW-620 colon,0.321 µM
same,TGI,SW-620 colon,1.09 µM
same,GI50,OVCAR-4 ovarian,1.14 µM
same,TGI,OVCAR-4 ovarian,2.52 µM
same,GI50,UO-31 renal,0.236 µM
same,TGI,UO-31 renal,0.846 µM
same,GI50,HCC-2998 colon,1.91 µM
same,TGI,HCC-2998 colon,3.52 µM
same,GI50,SNB-19 CNS,3.49 µM
same,TGI,SNB-19 CNS,14.9 µM
same,GI50,OVCAR-8 ovarian,0.665 µM
same,TGI,OVCAR-8 ovarian,2.22 µM
same,GI50,BT-549 breast,1.86 µM
same,TGI,BT-549 breast,3.39 µM
same,GI50,K-562 leukemia,0.302 µM
same,TGI,K-562 leukemia,1.38 µM
same,GI50,COLO 205 colon,1.07 µM
same,TGI,COLO 205 colon,2.8 µM
same,GI50,PC-3 prostate,2.03 µM
same,TGI,PC-3 prostate,5.4 µM
same,GI50,MDA-MB-435,1.14 µM
same,TGI,MDA-MB-435,3.07 µM
same,GI50,SF-268 CNS,2.26 µM
same,TGI,SF-268 CNS,5.62 µM
same,GI50,OVCAR-3 ovarian,0.511 µM
same,TGI,OVCAR-3 ovarian,1.67 µM
same,GI50,HOP-92 NSCLC,1.46 µM
same,TGI,HOP-92 NSCLC,3.01 µM
same,GI50,UACC-62 melanoma,1.32 µM
same,TGI,UACC-62 melanoma,2.69 µM
same,GI50,HCT-15 colon,0.277 µM
same,TGI,HCT-15 colon,0.849 µM
same,GI50,HT29 colon,0.346 µM
same,TGI,HT29 colon,1.2 µM
same,GI50,HS 578T breast,2.58 µM
same,TGI,HS 578T breast,8.4 µM
same,GI50,A549 NSCLC,2.88 µM
same,TGI,A549 NSCLC,10.1 µM
same,GI50,CCRF-CEM leukemia,0.236 µM
same,TGI,CCRF-CEM leukemia,0.886 µM
same,GI50,CAKI-1 renal,0.389 µM
same,TGI,CAKI-1 renal,1.37 µM
same,GI50,OVCAR-5 ovarian,1.57 µM
same,TGI,OVCAR-5 ovarian,2.95 µM
same,GI50,SK-MEL-5 melanoma,1.69 µM
same,TGI,SK-MEL-5 melanoma,3.51 µM
same,GI50,HL-60(TB) leukemia,0.694 µM
same,TGI,HL-60(TB) leukemia,2.75 µM
same,GI50,T-47D breast,0.279 µM
same,TGI,T-47D breast,1.42 µM
same,GI50,IGROV1 ovarian,1.61 µM
same,TGI,IGROV1 ovarian,3.41 µM
same,GI50,MDA-MB-231 breast,1.31 µM
same,TGI,MDA-MB-231 breast,2.83 µM
same,GI50,NCI-H460 lung,2.27 µM
same,TGI,NCI-H460 lung,5.3 µM
same,GI50,SK-MEL-2 melanoma,1.87 µM
same,TGI,SK-MEL-2 melanoma,3.78 µM
same,GI50,ACHN renal,0.253 µM
same,TGI,ACHN renal,0.63 µM
same,GI50,KM12 colon,2.1 µM
same,TGI,KM12 colon,4.27 µM
same,GI50,HCT-116 colon,0.198 µM
same,TGI,HCT-116 colon,0.4 µM
same,GI50,M14 melanoma,1.95 µM
same,TGI,M14 melanoma,4.41 µM
same,GI50,NCI-H522 lung,0.233 µM
same,TGI,NCI-H522 lung,0.61 µM
same,GI50,786-0 renal,0.828 µM
same,TGI,786-0 renal,2.21 µM
same,GI50,MALME-3M melanoma,1.4 µM
same,TGI,MALME-3M melanoma,3.4 µM
same,GI50,NCI-H226 lung,1.74 µM
same,TGI,NCI-H226 lung,3.71 µM
CCCCSSC(=S)N(CC)CC,GI50,SNB-75 CNS,55.5 µM
same,TGI,SNB-75 CNS,> 100 µM
same,GI50,HOP-62 NSCLC,> 100 µM
same,TGI,HOP-62 NSCLC,> 100 µM
same,GI50,DU-145 prostate,53.9 µM
same,TGI,DU-145 prostate,> 100 µM
same,GI50,NCI-H23 lung,> 100 µM
same,TGI,NCI-H23 lung,> 100 µM
same,GI50,A498 renal,> 100 µM
same,TGI,A498 renal,> 100 µM
same,GI50,SK-OV-3 ovarian,> 100 µM
same,TGI,SK-OV-3 ovarian,> 100 µM
same,GI50,SN12C renal,35.7 µM
same,TGI,SN12C renal,> 100 µM
same,GI50,LOX IMVI melanoma,20.6 µM
same,TGI,LOX IMVI melanoma,48.8 µM
same,GI50,RXF 393 renal,23.3 µM
same,TGI,RXF 393 renal,49.4 µM
same,GI50,MOLT-4 leukemia,20.2 µM
same,TGI,MOLT-4 leukemia,54.9 µM
same,GI50,TK-10 renal,41.2 µM
same,TGI,TK-10 renal,> 100 µM
same,GI50,SF-539 CNS,21.1 µM
same,TGI,SF-539 CNS,56.5 µM
same,GI50,RPMI-8226 leukemia,17.9 µM
same,TGI,RPMI-8226 leukemia,40.1 µM
same,GI50,SF-295 CNS,37.1 µM
same,TGI,SF-295 CNS,> 100 µM
same,GI50,NCI/ADR-RES ovarian,34.3 µM
same,TGI,NCI/ADR-RES ovarian,> 100 µM
same,GI50,SK-MEL-28 melanoma,23.4 µM
same,TGI,SK-MEL-28 melanoma,78.3 µM
same,GI50,U251 CNS,28.8 µM
same,TGI,U251 CNS,> 100 µM
same,GI50,UACC-257 melanoma,79.5 µM
same,TGI,UACC-257 melanoma,> 100 µM
same,GI50,SW-620 colon,16.7 µM
same,TGI,SW-620 colon,32.9 µM
same,GI50,OVCAR-4 ovarian,16.9 µM
same,TGI,OVCAR-4 ovarian,32.3 µM
same,GI50,UO-31 renal,20.9 µM
same,TGI,UO-31 renal,47.6 µM
same,GI50,HCC-2998 colon,> 100 µM
same,TGI,HCC-2998 colon,> 100 µM
same,GI50,SNB-19 CNS,> 100 µM
same,TGI,SNB-19 CNS,> 100 µM
same,GI50,OVCAR-8 ovarian,34.3 µM
same,TGI,OVCAR-8 ovarian,> 100 µM
same,GI50,BT-549 breast,26.1 µM
same,TGI,BT-549 breast,75.9 µM
same,GI50,K-562 leukemia,17.5 µM
same,TGI,K-562 leukemia,40.1 µM
same,GI50,PC-3 prostate,34.3 µM
same,TGI,PC-3 prostate,> 100 µM
same,GI50,MDA-MB-435,33.9 µM
same,TGI,MDA-MB-435,> 100 µM
same,GI50,SF-268 CNS,41.7 µM
same,TGI,SF-268 CNS,> 100 µM
same,GI50,OVCAR-3 ovarian,20.4 µM
same,TGI,OVCAR-3 ovarian,42.6 µM
same,GI50,HOP-92 NSCLC,26.9 µM
same,TGI,HOP-92 NSCLC,> 100 µM
same,GI50,UACC-62 melanoma,34.2 µM
same,TGI,UACC-62 melanoma,> 100 µM
same,GI50,HCT-15 colon,73.6 µM
same,TGI,HCT-15 colon,> 100 µM
same,GI50,HS 578T breast,38.6 µM
same,TGI,HS 578T breast,> 100 µM
same,GI50,A549 NSCLC,> 100 µM
same,TGI,A549 NSCLC,> 100 µM
same,GI50,CCRF-CEM leukemia,18.4 µM
same,TGI,CCRF-CEM leukemia,> 100 µM
same,GI50,CAKI-1 renal,18.3 µM
same,TGI,CAKI-1 renal,54.5 µM
same,GI50,OVCAR-5 ovarian,36.4 µM
same,TGI,OVCAR-5 ovarian,> 100 µM
same,GI50,SK-MEL-5 melanoma,21 µM
same,TGI,SK-MEL-5 melanoma,> 100 µM
same,GI50,HL-60(TB) leukemia,12.4 µM
same,TGI,HL-60(TB) leukemia,69.2 µM
same,GI50,EKVX NSCLC,> 100 µM
same,TGI,EKVX NSCLC,> 100 µM
same,GI50,T-47D breast,90.5 µM
same,TGI,T-47D breast,> 100 µM
same,GI50,MDA-MB-231 breast,32.4 µM
same,TGI,MDA-MB-231 breast,> 100 µM
same,GI50,NCI-H460 lung,25.4 µM
same,TGI,NCI-H460 lung,> 100 µM
same,GI50,SK-MEL-2 melanoma,57.7 µM
same,TGI,SK-MEL-2 melanoma,> 100 µM
same,GI50,ACHN renal,46.9 µM
same,TGI,ACHN renal,> 100 µM
same,GI50,HCT-116 colon,19 µM
same,TGI,HCT-116 colon,37 µM
same,GI50,M14 melanoma,25.7 µM
same,TGI,M14 melanoma,87 µM
same,GI50,786-0 renal,> 100 µM
same,TGI,786-0 renal,> 100 µM
same,GI50,MALME-3M melanoma,32.4 µM
same,TGI,MALME-3M melanoma,> 100 µM
same,GI50,NCI-H226 lung,> 100 µM
same,TGI,NCI-H226 lung,> 100 µM
